The source of these data is patent US11274102B2, “Compounds useful in HIV therapy” (GLAXOSMITHKLINE INTELLECTUAL PROPERTY DEVELOPMENT LIMITED, priority 2017, dated 2022).

The test system of experiment [1] is CD4+ T cells from HIV-infected donors. The experiment is described as follows: HIV latency disruption in primary patient CD4+ T cells (HIV gag RNA by RT-qPCR). Format: cell-based. Conditions: Homo sapiens. The protocol:
For the assessment of compound activity in primary patient cells, PBMCs were obtained by continuous-flow leukapheresis from HIV-infected, antiretrovirally-treated, aviremic patients whose plasma HIV-1 RNA was less than 50 copies/mL at the time of collection. PBMCs were isolated by Ficoll-Hypaque density gradient centrifugation and cryopreserved in the vapor phase of liquid nitrogen. On the day of assay, cells were rapidly thawed to room temperature in a 37° C. water bath and total CD4+ T cells were isolated by negative selection (Stemcell Technologies). CD4+ T cells were reconstituted in assay medium (RPMI-1640 containing 10% fetal bovine serum, 10 ug/mL Fuzeon® and 200 nM Rilpivirin) and 5×10^6 were plated onto 2 mL 96-well polypropylene plates. Compounds were dissolved in DMSO, diluted 1:250 into assay medium and then titrated into assay medium supplemented with 0.4% DMSO with a minimum of 3 biological replicates per each treatment condition. Compound titrations were transferred to the cells and the assay plates were incubated at 37° C. for 24 hours. Following incubation, the assay plates were centrifuged at 400×g for 10 minutes and the cell-free supernatants were removed and discarded. The nucleic acid from the cell pellets were extracted, purified and segregated into RNA and DNA components using AllPrep DNA/RNA 96-well kits (Qiagen). HIV reactivation was quantified from the RNA fraction by one-step RT-qPCR (applied Biosystems) using primers and probe that target gag messenger RNA. HIV copies were calculated based on extrapolations from standard curves generated with known quantities of synthetic target HIV gag DNA in the same PCR reaction plate as the samples. A minimum of 3 technical RT-qPCR replicates were run for each biological replicate.
Data were normalized and modeled accordingly raw data were used to calculate the absolute number of HIV-gag RNA copies per million CD4+ T cells, with the value for each compound and concentration based on the averaged value of 3 to 5 biological replicates, with each biological replicate value being the average of 3 technical RT-qPCR replicates.
The dose-response curve was fit to an unconstrained four parameter logistic equation, defined as: y=Vmax{1−[x^n÷(K^n+x^n)]}+Y2 • Where: • x=compound concentration • y=normalized response data • Vmax=upper bound of response • K=EC50 • Y2=lower bound or baseline of response • n=hill coefficient
An example of dose-response HIV latency disruption in vitro is presented in FIG. 1 comparing the compound of invention (Example-1) to the compound of prior art (Compound-A) in peripheral blood CD4+ T cells from a HIV-infected fully-suppressed subject. […]
In general terms: In qPCR the cycle at which signal appears reflects the starting amount.

For experiment [2], the system named is HIV-infected Jurkat cell clones (C16, 115 and N6). Briefly: Jurkat HIV Latency assay (HIV-expressed luciferase). The format is cell-based. Particulars: Homo sapiens, averaged potency for HIV latency disruption in Jurkat HIV cells, 24 hours incubation, read-out: Jurkat Mean PXC50 (converted). The protocol:
For the Jurkat HIV Latency assay, compounds were dissolved and titrated in DMSO and diluted 100-fold in assay medium (RPMI-1640 containing 10% fetal bovine serum) containing an equal mixture of three HIV-infected Jurkat cell clones (C16, 115 and N6) at a total concentration of 1-2×10^5 cells/mL. To test stability, compounds are pre-incubated in assay medium for 48 hours at 37° C. prior to adding cells (48 hr EC50). Compounds that induce HIV expression result in a dose-dependent production of the HIV expressed luciferase enzyme. After the incubation of cells with compound for 24 hours at 37° C., HIV activation and cytotoxicity are determined by measuring luminescence after the addition of Promega Steady-Glo® Luciferase Assay reagent or CellTiter-Glo® Luminescent Cell Viability Assay reagent, respectively.

[3] abbreviates: average potency from multiple donors, CD4+ T cells from HIV-infected donors, 24 hours, gag RNA, read-out: CD4 Mean PXC50 (converted).

Read-outs that look alike come from different tables or passages of the source.

For the compound `O=C1CCCN1Cc1nnc(Sc2ncnc3occ(-c4ccc(Cl)cc4)c23)o1` [Example 1, 1-((5-((5-(4-chlorophenyl)furo[2,3-d]pyrimidin-4-yl)thio)-1,3,4-oxadiazol-2-yl)methyl)pyrrolidin-2-one], the EC50 was 0.047 µM in experiment [1] (FIG. 1, peripheral blood CD4+ T cells from a HIV-infected fully-suppressed subject, cell-associated HIV gag RNA, 4-parameter logistic regression, read-out: EC50); 0.0357 µM in experiment [1] (setting [3]); 0.632 µM in experiment [2].

For the compound `O=C1CCCN1Cc1nnc(Sc2ncnc3occ(-c4ccco4)c23)o1` [Example 4, 1-((5-((5-(furan-2-yl)furo[2,3-d]pyrimidin-4-yl)thio)-1,3,4-oxadiazol-2-yl)methyl)pyrrolidin-2-one], the values for the EC50 in experiment [1] (setting [3]) and in experiment [2] were 0.015 µM and 0.491 µM, respectively.

For the compound `O=C1CCCN1Cc1nnc(Sc2ncnc3occ(-c4cccs4)c23)o1` [Example 6, 1-((5-((5-(thiophen-2-yl)furo[2,3-d]pyrimidin-4-yl)thio)-1,3,4-oxadiazol-2-yl)methyl)pyrrolidin-2-one], the EC50 in experiment [2] was 0.902 µM.

For the compound `Cc1ccc(-c2coc3ncnc(Sc4nnc(CN5CCCC5=O)o4)c23)s1` [Example 7, 1-((5-((5-(5-methylthiophen-2-yl)furo[2,3-d]pyrimidin-4-yl)thio)-1,3,4-oxadiazol-2-yl)methyl)pyrrolidin-2-one], the EC50 was 0.39 µM in experiment [1] (setting [3]) and 0.625 µM in experiment [2].
